Results reported in PubChem BioAssay AID720589 (Broad Institute, 2013).
Values joined by “and” are separate entries in the source; they are usually repeats but may differ in a detail not shown here. Equal entries are not always repeated.

The compounds below were run on HepG2 viability, ATP luminescence (CellTiter-Glo), 72 h (assay: ATP-based viability loss in HepG2 cells – cell-based, CellTiter-Glo luminescence, cherry-pick, set 3, cytotoxicity control, dose response (AID 720589)).
Work on CC(C)N1C/C(=C/c2ccsc2)C(=O)/C(=C/c2ccsc2)C1 yielded an AC35 of 11.7 µM. Cc1ccc(S(=O)(=O)Nc2ccc3c(c2)C(=O)N([C@H](C)CO)C[C@H](C)[C@@H](CN(C)Cc2ccc(C(F)(F)F)cc2)OCCCC[C@H](C)O3)cc1 showed an AC35 of 10 µM. Compound COc1ccc(S(=O)(=O)Nc2ccc3c(c2)C(=O)N([C@H](C)CO)C[C@@H](C)[C@@H](CN(C)Cc2ccc(C(=O)Nc4ccccc4N)cc2)O3)cc1 has an AC35 of 10.8 µM. Work on BrC(=C\c1ccccc1)/C=N/n1cnnc1 yielded an AC35 of 16.6 µM. Work on C/C(=N\NC(=O)c1n[nH]c2c1CCC2)c1cccs1 yielded an AC35 of 15.6 µM. N#C[C@H]1[C@H](c2ccc(C#Cc3ccccc3F)cc2)[C@@H](CO)N1C(=O)C1CCCCC1 was tested, and the AC35 was 12.9 µM. In the case of CC(C)=CCC/C(C)=C/CN1C(=O)N(c2ccc(F)cc2)[C@H]2C[C@@H](c3ccccc3)[C@@H](C)[C@@H](C(=O)N3CCOCC3)C[C@H]21, the AC35 is reported as 3.74 µM. In the case of COc1ccc(-c2cc(CNc3nc(NC(C)C)nc4cc(-c5ccccc5)sc34)on2)cc1, the AC35 is reported as 11 µM. COC(=O)C1=C(C)N(Cc2cccc(C(F)(F)F)c2)C(=NCc2ccc(OC)cc2)NC1c1cccc(F)c1 (configuration not stated) gave an AC35 of 7.37 µM. In the case of COc1ccccc1NC(=O)N1CCCCN2[C@H](CO)[C@H](c3ccc(-c4cccc(C)c4)cc3)[C@H]2C1, the AC35 is reported as 12.5 µM. Work on C[C@H]1CN([C@@H](C)CO)C(=O)c2cc(NS(=O)(=O)c3ccc(Cl)cc3)ccc2O[C@H]1CN(C)Cc1ccc(C(=O)Nc2ccccc2N)cc1 yielded an AC35 of 7.39 µM. C[C@@H]1CN([C@@H](C)CO)S(=O)(=O)c2ccc(C#CC(C)(C)O)cc2O[C@H]1CN(C)Cc1ccc(-c2ccccc2)cc1 showed an AC35 of 6.19 µM. In the case of COc1ccc(S(=O)(=O)Nc2ccc3c(c2)C(=O)N([C@H](C)CO)C[C@@H](C)[C@@H](CN(C)CC2CCCCC2)OCCCC[C@H](C)O3)cc1, the AC35 is reported as 12.2 µM. For C[C@H](CO)N1C[C@H](C)[C@@H](CN(C)Cc2ccc(Oc3ccccc3)cc2)Oc2ccc(NS(=O)(=O)c3ccc(Cl)cc3)cc2CC1=O, the AC35 was 10.3 µM. OCC1OC(n2cnc3c(NCc4ccco4)ncnc32)C(O)C1O (configuration not stated) gave an AC35 of 3.82 µM. C[C@H]1CCCCO[C@H](CN(C)Cc2ccc(C(F)(F)F)cc2)[C@@H](C)CN([C@@H](C)CO)C(=O)c2cc(NC(=O)Nc3ccccc3)ccc2O1 gave an AC35 of 22.4 µM. In the case of C[C@H](CO)N1C[C@H](C)[C@H](CN(C)Cc2ccc(C(=O)Nc3ccccc3N)cc2)Oc2c(cccc2N(C)C)C1=O, the AC35 is reported as 0.615 µM. Work on COc1cccc(O)c1CN1CCC(C(=O)Nc2ccc(-c3cccc(C)c3)cc2)CC1 yielded an AC35 of 10.4 µM. CCc1nc(N)nc(N)c1-c1ccc(Cl)cc1 showed an AC35 of 6.43 µM. For COC(=O)C1=C(C)N(Cc2ccccc2C(F)(F)F)C(=NCc2ccc(OC)cc2)NC1c1ccc(C(F)(F)F)cc1 (configuration not stated), the AC35 was 11.1 µM. Compound O=C1Nc2cc(C(=O)NCCN3CCCCCC3)ccc2S/C1=C\c1ccccc1 has an AC35 of 10.7 µM. With Cc1ccc(/C=N/Nc2ccnc3cc(Cl)ccc23)c(C)c1 the AC35 was 5.3 µM. COc1ccc(NC(=O)N2CCCCN3[C@@H](CO)[C@H](c4ccc(C5=CCCCC5)cc4)[C@@H]3C2)cc1 gave an AC35 of 10.9 µM. C[C@@H]1CN([C@@H](C)CO)C(=O)c2cc(NC(=O)c3ccccc3)ccc2O[C@@H](C)CCCCO[C@H]1CN(C)C(=O)Nc1cccc2ccccc12 showed an AC35 of 0.927 µM. For C[C@@H]1CN([C@@H](C)CO)C(=O)c2cccc(N(C)C)c2O[C@@H]1CN(C)Cc1ccc(C(=O)Nc2ccccc2N)cc1, the AC35 was 4.26 µM. Compound C(=Cc1nc2ccccc2o1)c1ccc2c(c1)OCO2 has an AC35 of 19.5 µM. For CC1(C)N=C(N)N=C(N)N1c1ccc(CCCCc2ccccc2)cc1, the AC35 was 2.08 µM. Compound CCOc1cc2[nH]c(=S)n(Cc3ccc(C(=O)NCCN(CC)CC)cc3)c(=O)c2cc1OCC has an AC35 of 15.8 µM. With C[C@@H]1CCCCO[C@H](CN(C)Cc2ccc(C(=O)Nc3ccccc3N)cc2)[C@@H](C)CN([C@H](C)CO)C(=O)c2cc(NS(=O)(=O)c3ccc(F)cc3)ccc2O1 the AC35 was 10.4 µM. CC(C)CC#Cc1ccc([C@@H]2[C@@H](CO)N3CCCCN(S(=O)(=O)c4ccc(F)cc4)C[C@H]23)cc1 gave an AC35 of 12.7 µM. COc1ccc(OC)c(Cc2cnc3nc(N)nc(N)c3c2C)c1 showed an AC35 of 0.0574 µM. CCc1cccc2c(C(=O)CN3C(=O)NC4(CCCCC4)C3=O)c[nH]c12 gave an AC35 of 8.59 µM. CCc1ccc(/C=C2\SC(=S)N(CCCC(=O)NCCCN3CCOCC3)C2=O)cc1 was tested, and the AC35 was 10.8 µM. Nc1ccc(Cn2ccc3c4c(N)nc(N)nc4ccc32)cc1 was tested, and the AC35 was 0.137 µM. In the case of Cc1cc(-c2nc3ccccc3s2)ccc1N, the AC35 is reported as 0.0502 µM. With Cc1cc(-c2nc3cc(F)ccc3s2)ccc1N the AC35 was 0.0938 µM. Work on CCN1/C(=C/C(C)=C/c2sc3ccccc3[n+]2CC)Sc2ccccc21 yielded an AC35 of 0.838 µM. In the case of C[C@H]1CN([C@@H](C)CO)S(=O)(=O)c2ccc(C#CC(C)(C)O)cc2O[C@@H]1CN(C)Cc1ccc(-c2ccccc2)cc1, the AC35 is reported as 0.689 µM. For C[C@H](O)C#Cc1ccc2c(c1)O[C@@H](CN(C)Cc1ccc(-c3ccccc3)cc1)[C@H](C)CN([C@@H](C)CO)S2(=O)=O, the AC35 was 3.54 µM and 6.95 µM. With COc1ccc(CC(N)c2csc(NC(=O)Nc3cccc(C(F)(F)F)c3)n2)cc1 (configuration not stated) the AC35 was 6.15 µM. C[C@H]1CN([C@@H](C)CO)S(=O)(=O)c2ccc(C#Cc3ccncc3)cc2O[C@@H]1CN(C)C(=O)Nc1ccc2c(c1)OCO2 was tested, and the AC35 was 0.902 µM. NC(Cc1ccc(C(F)(F)F)cc1)c1csc(NC(=O)Nc2ccccc2Cc2ccccc2)n1 (configuration not stated) showed an AC35 of 12.4 µM. CN(C)c1ccc(/C=N/Nc2nc3ccccc3o2)cc1 was tested, and the AC35 was 18.2 µM. CCCCc1c(Cc2ccccc2)ncn1CCc1ccccc1OC was tested, and the AC35 was 13.5 µM. Compound Cc1[nH][nH]c(=O)c1C(c1c(C)[nH][nH]c1=O)c1cn(Cc2ccc(Cl)c(Cl)c2)c2ccccc12 has an AC35 of 13.5 µM. CCCCCCCCNC(C)C(O)c1ccc(SC(C)C)cc1 (configuration not stated) gave an AC35 of 12.9 µM. Compound C[C@H](CO)N1C[C@H](C)[C@H](CN(C)Cc2ccc(C(=O)Nc3ccccc3N)cc2)Oc2ccc(N(C)C)cc2CC1=O has an AC35 of 0.19 µM. Work on C(=N\Nc1nc2ccccc2s1)/c1ccccn1 yielded an AC35 of 4.83 µM. With CCCCC[C@H](C)N1C[C@H](COCc2ccccc2)Oc2cc(N3CC[C@@H](N(C)C)C3)ccc2S1(=O)=O the AC35 was 6.56 µM. With COC(=O)Cc1[nH]n(-c2nc3ccccc3s2)c(=O)c1C(C)=Nc1ccc(C)cc1 the AC35 was 17.8 µM. With CN(C[C@H]1N[C@@H](CO)[C@@H]1c1ccc(C2=CCCC2)cc1)C(=O)c1cccc(F)c1 the AC35 was 2.88 µM. O=C1c2ccccc2C(=O)c2cc(N3CCCCC3)ccc21 gave an AC35 of 12.5 µM.
